Patent US20090305244A1, “Selection, Propagation and Use of Mosaic Aneuploid Stem Cells” (The Scripps Research Institute, priority 2005, published 2009)
Entries after “also recorded” stand apart in the source; their conditions may differ.

Key:
Mouse ESC [1] = assay: Neuronal differentiation of ESCs co-cultured with PA6 cells (tuj1 staining); assay type: cell-based; conditions: taxol 2.5 nM versus without taxol; PA6 co-culture 1 week; FIG. 4
Source text: (§1) A key attribute of HESCs is their ultimate ability to differentiate into normal, mature cells. There is ample evidence that the differentiation of ES cells can be manipulated to give rise to enriched populations of neuronal cells. Stromal PA6 cells, when used as feeders, promote neural differentiation by inducing mouse ES colonies to become Tuj-1-positive and with robust neuritogenesis (Kawasaki et al., 2000). To examine the differentiation potential of anueploid vs. euploid cells, mammalian ESCs were treated with (aneuploid) or without (euploid) taxol and were examined for their ability to differentiate into neurons when cocultured with PA6 cells. Following 1 week of differentiation, 55% of taxol treated cells had gained chromosomes (FIG. 3).
(§2) Mouse ESC were co-cultured with PA6 cells (Kawasaki et al., 2002) for 1 week under differentiation conditions (DMEM/F12 Glutamax (Gibco, Carlsbad, Calif.), 10% “KNOCKOUT” serum replacement (Gibco), 0.1 mM non-essential aminoacids (Gibco) and 0.1 mM β-mercaptoethanol (Gibco). Cells were treated with taxol (Sigma) at a concentration of 2.5 nM.
Immunofluorescence staining was performed as previously described (Gage et al., 1995), using α-β-tubulin-III (Tuj-1; 1/1000, Covance). Secondary antibodies were purchased from Jackson ImmunoResearch.

Mouse ESC [2] = assay: Chromosome counts of ESCs treated with taxol during PA6 co-culture differentiation; assay type: cell-based; conditions: FIG. 3
Source text: as §1, §2
HESC Chromosome spreads were obtained by standard protocols (Barch et al., 1997; Rehen et al., 2001). […]
For each sample, 40 metaphase spreads were captured and analyzed by SKY and 70 metaphase spreads counterstained with DAPI were captured for aneuploidy quantification.

CC(=O)O[C@H]1C(=O)[C@@]2(C)[C@H]([C@H](OC(=O)c3ccccc3)[C@]3(O)C[C@H](OC(=O)[C@H](O)[C@@H](NC(=O)c4ccccc4)c4ccccc4)C(C)=C1C3(C)C)[C@]1(OC(C)=O)CO[C@@H]1C[C@@H]2O [taxol]
number of neuronally differentiated colonies (tuj1 staining) / neuronal differentiation potential (Mouse ESC [1]): significantly reduces neuronal differentiation potential; also recorded: significant decrease
induction of aneuploidy (chromosome counts) (Mouse ESC [2]; ESCs on PA6 cells treated with taxol for 6 days): induces aneuploidy, specifically hyperploidy
taxol treated cells that had gained chromosomes (Mouse ESC [2]; taxol 2.5 nM, following 1 week of differentiation on PA6 cells): 55%
